# Measured values as given in publication PMC5705267 (Synapse (New York, N.Y.), 2017).
# Biological target: GHSR1a (growth hormone secretagogue receptor 1a, ghrelin receptor) (Homo sapiens, UniProt Q92847)
# Test: aequorin Ca2+ mobilization, antagonism of L-692, […] in HEK293 cells
# Format: cell-based
# Sequence of GHSR1a (growth hormone secretagogue receptor 1a, ghrelin receptor) (Q92847 whole entry): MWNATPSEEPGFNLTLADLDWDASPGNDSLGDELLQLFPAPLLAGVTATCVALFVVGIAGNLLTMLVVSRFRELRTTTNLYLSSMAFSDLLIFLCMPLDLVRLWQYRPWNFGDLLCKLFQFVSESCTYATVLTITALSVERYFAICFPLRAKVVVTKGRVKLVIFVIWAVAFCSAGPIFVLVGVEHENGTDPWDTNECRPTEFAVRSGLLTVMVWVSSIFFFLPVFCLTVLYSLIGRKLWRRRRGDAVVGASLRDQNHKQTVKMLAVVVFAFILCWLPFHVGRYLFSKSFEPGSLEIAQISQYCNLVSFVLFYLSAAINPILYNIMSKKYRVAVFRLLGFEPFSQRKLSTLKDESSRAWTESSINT
smiles,measurement,value
Cc1nc2ccc(Oc3ccc(F)cc3)cc2c(=O)n1C[C@H]1CCCN(C(C)C)C1 [YIL781],IC50,185 nM
